PubChem BioAssay (NCI)
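At the GI50, growth is halved. TGI marks complete inhibition of growth.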

How the values were obtained:
Assay in all cases: NCI anticancer screen, dose series, 384-well format; in the data active = GI50 below about 0.43 µM; inactive = the rest
PC-3 prostate = test system: PC-3 prostate
CAKI-1 renal = test system: CAKI-1 renal
MOLT-4 leukemia = test system: MOLT-4 leukemia
HCT-116 colon = test system: HCT-116 colon
HOP-92 NSCLC = test system: HOP-92 NSCLC
HS 578T breast = test system: HS 578T breast
HT29 colon = test system: HT29 colon
HOP-62 NSCLC = test system: HOP-62 NSCLC
T-47D breast = test system: T-47D breast
SK-MEL-5 melanoma = test system: SK-MEL-5 melanoma
786-0 renal = test system: 786-0 renal
M14 melanoma = test system: M14 melanoma
DU-145 prostate = test system: DU-145 prostate
UO-31 renal = test system: UO-31 renal
KM12 colon = test system: KM12 colon
MDA-MB-435 melanoma = test system: MDA-MB-435 melanoma
NCI-H226 lung = test system: NCI-H226 lung
A498 renal = test system: A498 renal
LOX IMVI melanoma = test system: LOX IMVI melanoma
UACC-257 melanoma = test system: UACC-257 melanoma
OVCAR-5 ovarian = test system: OVCAR-5 ovarian
HL-60(TB) leukemia = test system: HL-60(TB) leukemia
MDA-MB-468 breast = test system: MDA-MB-468 breast
U251 glioblastoma = test system: U251 glioblastoma
IGROV1 ovarian = test system: IGROV1 ovarian
OVCAR-4 ovarian = test system: OVCAR-4 ovarian
TK-10 renal = test system: TK-10 renal
OVCAR-3 ovarian = test system: OVCAR-3 ovarian
COLO 205 colon = test system: COLO 205 colon

O=C(Nc1cc(F)c(F)cc1C(=O)O)c1ccc(-n2ccnc2)nn1
inactive: GI50 (PC-3 prostate) > 100 µM | GI50 (CAKI-1 renal) > 100 µM | GI50 (MOLT-4 leukemia) > 100 µM | GI50 (HCT-116 colon) > 100 µM | GI50 (HOP-92 NSCLC) > 100 µM | GI50 (HS 578T breast) > 100 µM | GI50 (HT29 colon) > 100 µM | GI50 (HOP-62 NSCLC) > 100 µM | GI50 (T-47D breast) > 100 µM | GI50 (SK-MEL-5 melanoma) 57.9 µM | GI50 (786-0 renal) > 100 µM | GI50 (M14 melanoma) > 100 µM | GI50 (DU-145 prostate) > 100 µM | GI50 (UO-31 renal) > 100 µM | GI50 (KM12 colon) > 100 µM | GI50 (MDA-MB-435 melanoma) > 100 µM | GI50 (NCI-H226 lung) > 100 µM | GI50 (A498 renal) > 100 µM | GI50 (LOX IMVI melanoma) > 100 µM | GI50 (UACC-257 melanoma) > 100 µM | GI50 (OVCAR-5 ovarian) > 100 µM | GI50 (HL-60(TB) leukemia) > 100 µM | GI50 (MDA-MB-468 breast) 29.2 µM | GI50 (U251 glioblastoma) > 100 µM | GI50 (IGROV1 ovarian) > 100 µM | GI50 (OVCAR-4 ovarian) > 100 µM | GI50 (TK-10 renal) > 100 µM | GI50 (OVCAR-3 ovarian) > 100 µM | GI50 (COLO 205 colon) > 100 µM
> 100 µM: TGI (PC-3 prostate) | TGI (CAKI-1 renal) | TGI (MOLT-4 leukemia) | TGI (HCT-116 colon) | TGI (HOP-92 NSCLC) | TGI (HS 578T breast) | TGI (HT29 colon) | TGI (HOP-62 NSCLC) | TGI (T-47D breast) | TGI (SK-MEL-5 melanoma) | TGI (786-0 renal) | TGI (M14 melanoma) | TGI (DU-145 prostate) | TGI (UO-31 renal) | TGI (KM12 colon) | TGI (MDA-MB-435 melanoma) | TGI (NCI-H226 lung) | TGI (A498 renal) | TGI (LOX IMVI melanoma) | TGI (UACC-257 melanoma) | TGI (OVCAR-5 ovarian) | TGI (HL-60(TB) leukemia) | TGI (MDA-MB-468 breast) | TGI (U251 glioblastoma) | TGI (IGROV1 ovarian) | TGI (OVCAR-4 ovarian) | TGI (TK-10 renal) | TGI (OVCAR-3 ovarian) | TGI (COLO 205 colon)
